Source: BindingDB's records for doi:10.3109/14756366.2013.765417 (Msa University, 2014)

How the values were obtained:
[1] = biological target: Epidermal growth factor receptor (Homo sapiens, UniProt P00533); test: In Vitro Tyrosine Kinase Enzyme Assay
Experimental: (§1) Protein kinase assays were performed at ambient temperature for 20-40 min (depending on the target) in a final volume of 25 μl according to the following assay reaction recipe: […] of diluted active protein kinase target (~10-50 nM final protein concentration in the assay), 2.5 μl of peptide substrate, 3. μl of kinase assay buffer, 5 μl of compound or 10% DMSO, and 5 μl of 33P-ATP (250 μM stock solution, 0.8 mCi). The assay was initiated by the addition of 33P-ATP and the reaction mixture was incubated at ambient temperature for 20-40 min, depending on the protein kinase target. After the incubation period, the assay was terminated by spotting 10 μl of the reaction mixture onto Multiscreen phosphocellulose P81 plate. The Multiscreen phosphocellulose P81 plate was washed three times for approximately 15 min each in a 1% phosphoric acid solution. The radioactivity on the P81 plate (EMD Millipore Corporation, Billerica, MA) was counted in the presence of scintillation fluid in a Trilux scintillation counter (GMI Inc., Ramsey, MN).

[2] = biological target: Receptor tyrosine-protein kinase erbB-2 (Homo sapiens, UniProt P04626); test: In Vitro Tyrosine Kinase Enzyme Assay
Experimental: as §1

Chain of Epidermal growth factor receptor (P00533 whole entry): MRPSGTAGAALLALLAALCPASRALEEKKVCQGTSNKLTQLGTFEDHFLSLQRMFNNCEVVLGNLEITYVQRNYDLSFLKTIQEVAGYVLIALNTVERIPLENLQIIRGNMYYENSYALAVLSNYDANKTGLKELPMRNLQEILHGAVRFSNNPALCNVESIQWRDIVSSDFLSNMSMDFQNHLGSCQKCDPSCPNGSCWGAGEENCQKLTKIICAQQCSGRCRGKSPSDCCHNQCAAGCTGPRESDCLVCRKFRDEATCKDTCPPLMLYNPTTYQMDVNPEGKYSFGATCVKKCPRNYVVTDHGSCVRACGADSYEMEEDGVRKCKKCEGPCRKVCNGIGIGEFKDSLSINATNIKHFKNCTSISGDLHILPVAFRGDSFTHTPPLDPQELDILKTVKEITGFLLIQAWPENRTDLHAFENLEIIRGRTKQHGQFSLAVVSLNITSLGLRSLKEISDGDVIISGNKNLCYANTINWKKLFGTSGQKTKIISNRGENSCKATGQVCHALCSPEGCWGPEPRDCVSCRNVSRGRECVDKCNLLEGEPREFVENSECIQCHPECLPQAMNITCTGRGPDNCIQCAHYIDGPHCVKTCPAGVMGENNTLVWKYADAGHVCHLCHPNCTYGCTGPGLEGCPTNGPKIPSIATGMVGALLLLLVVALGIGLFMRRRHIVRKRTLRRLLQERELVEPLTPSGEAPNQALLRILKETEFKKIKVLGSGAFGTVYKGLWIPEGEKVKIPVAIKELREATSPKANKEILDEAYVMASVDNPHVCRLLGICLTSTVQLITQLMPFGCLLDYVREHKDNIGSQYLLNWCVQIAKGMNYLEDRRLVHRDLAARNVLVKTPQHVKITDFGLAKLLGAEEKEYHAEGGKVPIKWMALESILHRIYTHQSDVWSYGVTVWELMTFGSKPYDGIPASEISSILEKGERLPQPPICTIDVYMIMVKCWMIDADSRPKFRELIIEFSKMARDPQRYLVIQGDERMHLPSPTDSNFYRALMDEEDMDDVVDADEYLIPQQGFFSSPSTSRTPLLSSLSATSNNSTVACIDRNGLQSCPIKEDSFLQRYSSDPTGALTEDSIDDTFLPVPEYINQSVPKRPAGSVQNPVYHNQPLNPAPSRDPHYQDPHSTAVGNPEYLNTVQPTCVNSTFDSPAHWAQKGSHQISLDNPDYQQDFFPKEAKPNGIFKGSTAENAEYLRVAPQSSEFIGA
Chain of Receptor tyrosine-protein kinase erbB-2 (P04626 whole entry): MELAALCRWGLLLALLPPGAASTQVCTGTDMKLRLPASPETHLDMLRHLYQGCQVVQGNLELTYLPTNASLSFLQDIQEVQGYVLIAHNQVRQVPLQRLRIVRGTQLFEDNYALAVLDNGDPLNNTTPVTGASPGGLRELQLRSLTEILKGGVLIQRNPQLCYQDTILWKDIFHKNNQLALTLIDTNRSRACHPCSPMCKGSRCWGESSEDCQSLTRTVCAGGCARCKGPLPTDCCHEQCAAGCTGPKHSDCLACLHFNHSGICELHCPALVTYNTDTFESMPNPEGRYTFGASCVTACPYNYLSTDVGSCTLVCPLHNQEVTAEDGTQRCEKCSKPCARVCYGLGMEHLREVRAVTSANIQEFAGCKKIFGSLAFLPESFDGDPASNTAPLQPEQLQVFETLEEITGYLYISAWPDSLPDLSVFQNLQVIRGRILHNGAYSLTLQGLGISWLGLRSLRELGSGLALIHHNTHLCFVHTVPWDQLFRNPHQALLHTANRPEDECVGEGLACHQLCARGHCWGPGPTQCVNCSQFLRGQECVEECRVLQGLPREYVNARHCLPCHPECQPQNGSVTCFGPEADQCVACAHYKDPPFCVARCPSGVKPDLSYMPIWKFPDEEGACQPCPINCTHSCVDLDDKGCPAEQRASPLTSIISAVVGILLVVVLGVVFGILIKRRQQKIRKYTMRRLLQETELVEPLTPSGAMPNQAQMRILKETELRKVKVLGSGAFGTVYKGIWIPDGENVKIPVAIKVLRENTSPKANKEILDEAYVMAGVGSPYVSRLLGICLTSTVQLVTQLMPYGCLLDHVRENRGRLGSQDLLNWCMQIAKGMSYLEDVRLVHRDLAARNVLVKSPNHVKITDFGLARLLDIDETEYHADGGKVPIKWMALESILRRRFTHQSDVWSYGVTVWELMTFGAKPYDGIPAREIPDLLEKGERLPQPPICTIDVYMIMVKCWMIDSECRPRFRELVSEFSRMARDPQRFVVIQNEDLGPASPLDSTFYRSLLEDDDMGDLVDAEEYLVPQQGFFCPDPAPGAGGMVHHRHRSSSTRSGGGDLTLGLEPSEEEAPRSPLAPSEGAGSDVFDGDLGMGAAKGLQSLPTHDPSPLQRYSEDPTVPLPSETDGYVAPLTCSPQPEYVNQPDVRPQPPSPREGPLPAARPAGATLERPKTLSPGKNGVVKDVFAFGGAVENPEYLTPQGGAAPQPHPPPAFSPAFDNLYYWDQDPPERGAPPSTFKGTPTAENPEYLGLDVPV

| Compound | IC50 [1] [nM] | IC50 [2] [nM] |
| --- | --- | --- |
| COc1cc2ncnc(Nc3ccc(-c4cc(-c5ccc(Br)cc5)c(C#N)c(=N)[nH]4)cc3)c2cc1OC [HER2/EGFR dual kinase inhibitor, 5e] | 1930 | 1040 |
| N#Cc1c(-c2ccc(F)cc2)cc(-c2ccc(Nc3ncnc4ccccc34)cc2)[nH]c1=N [HER2/EGFR dual kinase inhibitor, 5d] | 2090 | 3980 |
| COc1cc2ncnc(Nc3ccc(C(=O)/C=C/c4ccc(Cl)cc4)cc3)c2cc1OC [(E)-3-(4-Chlorophenyl)-1-{4-[(6,7-dimethoxyquinazolin-4-yl)amino]phenyl}prop-2-en-1-one] | 2580 | 98800 |
